The source of these data is ChEMBL document CHEMBL4138170, “Synthesis and biological evaluation of novel alkylated polyamine analogues as potential anticancer agents” (Eur J Med Chem, 2018).

Common to all, as to assay type: functional, cell-based
The test system of one assay is HepG2. Put plainly: Antiproliferative activity against human HepG2 cells after 48 hrs by MTT assay. The settings on record: HepG2, 48 h. Background: Tetrazolium assays rely on reduction of a dye to a coloured formazan, in cell work by metabolically active cells.
Another assay has as its system HCT-116. The assay is described as follows: Antiproliferative activity against human HCT116 cells after 48 hrs by MTT assay. The following applies: HCT-116, 48 h.
A further assay deals with K562. Put plainly: Antiproliferative activity against human K562 cells after 48 hrs by MTT assay. The settings on record: K562, 48 h.
For another assay, the system named is SMMC-7721. Put plainly: Antiproliferative activity against human SMMC7721 cells after 48 hrs by MTT assay. The settings on record: SMMC-7721, 48 h.

Broadly, the IC50 is the concentration that inhibits the measured activity by half. Low values mean inhibition by little substance, high ones a need for much substance. Consider `O=C1c2cccc3cccc(c23)C(=O)N1CCCNCCCCNCCCNC1CCCCC1`, for which the concentration for half-maximal inhibition (IC50) is 25.4 µM in the assay on HepG2, 18.3 µM in the assay with HCT-116, 17.2 µM in the assay on K562 and 29.9 µM with SMMC-7721.
In the same order, the values of `CCCNCCCNCCCCNCCCN1C(=O)c2cccc3cccc(c23)C1=O` are 7.66 µM, 5.2 µM, 7.71 µM and 6.6 µM.
In the same order, the values of `O=C1c2cccc3cccc(c23)C(=O)N1CCCCNCCCCNCCCCNC1CC1` are 9.68 µM, 15.1 µM, 8.55 µM and 12 µM.
In the same order, the values of `O=C1c2cccc3cccc(c23)C(=O)N1CCCCNCCCCNCCCCNC1CCCCC1` are 37 µM, 14.2 µM, 30.7 µM and 14.3 µM.
Regarding `CCNCCCNCCCNCCCN1C(=O)c2cccc3cccc(c23)C1=O`, the IC50 in the assay on HepG2 was found to be 6.77 µM; with HCT-116 it was 6.73 µM; in the assay on K562, 6.08 µM; with SMMC-7721, 7.71 µM.
In the same order, the values of `CCCNCCCCNCCCCNCCCCN1C(=O)c2cccc3cccc(c23)C1=O` are 75.3 µM, 20.4 µM, 32.4 µM and 18.8 µM.
